Experimental data reported in PMC10745491 (Frontiers in Cellular Neuroscience, 2023).
Peptide text beside a SMILES is read from it.

Experiments:
[1] = biological target: alpha 1A (Homo sapiens, UniProt P35348); type: binding
[2] = biological target: AT1 (Homo sapiens, UniProt P30556); type: binding
[3] = biological target: N muscle-type (Homo sapiens, UniProt P02708+P07510+Q07001); type: binding
[4] = biological target: 5-HT2A (Homo sapiens, UniProt P28223); experiment: radioligand binding assay
5-HT2A, sequence (P28223 whole entry): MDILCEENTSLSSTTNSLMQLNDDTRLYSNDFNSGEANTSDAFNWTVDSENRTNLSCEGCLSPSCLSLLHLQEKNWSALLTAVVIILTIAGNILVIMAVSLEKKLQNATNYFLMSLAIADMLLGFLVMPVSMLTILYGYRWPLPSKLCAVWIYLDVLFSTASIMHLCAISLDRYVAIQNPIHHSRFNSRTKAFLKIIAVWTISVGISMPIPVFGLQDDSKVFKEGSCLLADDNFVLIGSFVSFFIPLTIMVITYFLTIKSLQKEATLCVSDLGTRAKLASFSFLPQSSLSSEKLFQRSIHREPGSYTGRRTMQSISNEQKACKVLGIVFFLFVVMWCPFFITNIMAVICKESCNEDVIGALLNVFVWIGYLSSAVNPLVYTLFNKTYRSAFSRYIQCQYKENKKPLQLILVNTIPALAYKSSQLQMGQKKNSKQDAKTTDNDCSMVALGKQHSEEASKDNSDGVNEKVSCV

[5] = biological target: sst4 (Homo sapiens, UniProt P31391); type: binding
[6] = system: Ca2+ channel; type: binding, human
[7] = system: Na+ channel; experiment: radioligand binding assay; set-up: species or system human
[8] = biological target: acetylcholinesterase (Homo sapiens, UniProt P22303); type: biochemical
[9] = biological target: A3 (Homo sapiens, UniProt P0DMS8)
A3, sequence (P0DMS8 whole entry): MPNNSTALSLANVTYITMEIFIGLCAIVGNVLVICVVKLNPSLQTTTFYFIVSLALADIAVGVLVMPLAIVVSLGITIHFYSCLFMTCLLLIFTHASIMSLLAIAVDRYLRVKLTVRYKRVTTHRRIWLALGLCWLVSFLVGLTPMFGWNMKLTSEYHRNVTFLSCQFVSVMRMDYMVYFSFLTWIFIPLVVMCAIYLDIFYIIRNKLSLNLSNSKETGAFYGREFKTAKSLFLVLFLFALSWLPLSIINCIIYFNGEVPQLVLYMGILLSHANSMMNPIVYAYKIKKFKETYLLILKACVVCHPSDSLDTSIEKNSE

[10] = biological target: alpha 2A (Homo sapiens, UniProt P08913)
[11] = biological target: kappa (Homo sapiens, UniProt P41145)
kappa, sequence (P41145 whole entry): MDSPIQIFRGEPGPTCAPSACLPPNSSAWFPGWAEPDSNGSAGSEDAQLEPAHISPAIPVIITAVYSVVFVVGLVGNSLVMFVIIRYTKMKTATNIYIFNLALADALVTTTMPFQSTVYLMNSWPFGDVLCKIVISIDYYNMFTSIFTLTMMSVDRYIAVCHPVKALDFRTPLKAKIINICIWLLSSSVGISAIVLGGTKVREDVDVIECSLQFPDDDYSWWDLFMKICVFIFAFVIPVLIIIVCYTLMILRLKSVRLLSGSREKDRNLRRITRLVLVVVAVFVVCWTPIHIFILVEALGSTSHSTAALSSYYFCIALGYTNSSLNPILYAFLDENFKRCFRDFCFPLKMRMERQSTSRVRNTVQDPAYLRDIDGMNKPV

[12] = biological target: mu (Homo sapiens, UniProt P35372)
[13] = system: sigma
[14] = biological target: NE transporter (Homo sapiens, UniProt P23975)
NE transporter, sequence (P23975 whole entry): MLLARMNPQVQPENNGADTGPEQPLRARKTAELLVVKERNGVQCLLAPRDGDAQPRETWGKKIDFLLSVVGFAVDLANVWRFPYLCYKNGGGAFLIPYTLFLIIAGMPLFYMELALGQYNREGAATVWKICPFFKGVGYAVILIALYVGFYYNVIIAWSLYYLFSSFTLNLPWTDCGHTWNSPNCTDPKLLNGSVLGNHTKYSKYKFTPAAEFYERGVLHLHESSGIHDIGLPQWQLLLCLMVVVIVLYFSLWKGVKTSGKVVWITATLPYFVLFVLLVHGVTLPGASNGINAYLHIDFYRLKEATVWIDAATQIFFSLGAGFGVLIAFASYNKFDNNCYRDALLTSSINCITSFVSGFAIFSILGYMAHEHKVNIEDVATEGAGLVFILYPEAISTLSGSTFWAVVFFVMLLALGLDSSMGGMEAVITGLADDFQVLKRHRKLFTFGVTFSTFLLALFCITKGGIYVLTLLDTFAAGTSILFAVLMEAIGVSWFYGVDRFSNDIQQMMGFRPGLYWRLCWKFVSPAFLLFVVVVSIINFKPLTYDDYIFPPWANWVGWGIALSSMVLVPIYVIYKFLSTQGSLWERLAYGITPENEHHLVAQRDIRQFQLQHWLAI

[15] = biological target: 5-HT transporter (Homo sapiens, UniProt P31645)
5-HT transporter, sequence (P31645 whole entry): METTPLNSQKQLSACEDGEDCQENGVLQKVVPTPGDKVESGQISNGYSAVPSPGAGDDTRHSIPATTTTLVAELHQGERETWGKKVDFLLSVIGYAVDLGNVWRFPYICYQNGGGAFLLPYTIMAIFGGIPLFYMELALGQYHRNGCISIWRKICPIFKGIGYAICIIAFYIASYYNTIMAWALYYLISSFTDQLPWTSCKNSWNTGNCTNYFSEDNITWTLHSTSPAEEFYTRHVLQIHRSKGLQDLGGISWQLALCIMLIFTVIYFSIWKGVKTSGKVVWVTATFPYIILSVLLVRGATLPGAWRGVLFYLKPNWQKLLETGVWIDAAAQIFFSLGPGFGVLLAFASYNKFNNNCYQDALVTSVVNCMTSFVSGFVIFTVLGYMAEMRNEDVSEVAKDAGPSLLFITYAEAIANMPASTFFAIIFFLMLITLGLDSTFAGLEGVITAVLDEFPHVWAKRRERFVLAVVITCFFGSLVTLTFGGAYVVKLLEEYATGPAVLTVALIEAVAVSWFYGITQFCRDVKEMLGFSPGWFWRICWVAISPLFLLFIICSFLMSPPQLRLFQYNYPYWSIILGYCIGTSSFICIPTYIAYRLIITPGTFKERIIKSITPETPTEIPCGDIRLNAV

[16] = biological target: ACE (Homo sapiens, UniProt P12821)
[17] = biological target: CDK2 (Homo sapiens, UniProt P24941)
[18] = biological target: GSK3beta (Homo sapiens, UniProt P49841)
[19] = biological target: xanthine oxidase / superoxide O2-scavenging (Bos taurus, UniProt P80457)
[20] = biological target: rat OXTR (Rattus norvegicus, UniProt P70536); experiment: cell-based
[21] = biological target: human OXTR (Homo sapiens, UniProt P30559); experiment: cell-based

N muscle-type, sequence (P11230 24-501): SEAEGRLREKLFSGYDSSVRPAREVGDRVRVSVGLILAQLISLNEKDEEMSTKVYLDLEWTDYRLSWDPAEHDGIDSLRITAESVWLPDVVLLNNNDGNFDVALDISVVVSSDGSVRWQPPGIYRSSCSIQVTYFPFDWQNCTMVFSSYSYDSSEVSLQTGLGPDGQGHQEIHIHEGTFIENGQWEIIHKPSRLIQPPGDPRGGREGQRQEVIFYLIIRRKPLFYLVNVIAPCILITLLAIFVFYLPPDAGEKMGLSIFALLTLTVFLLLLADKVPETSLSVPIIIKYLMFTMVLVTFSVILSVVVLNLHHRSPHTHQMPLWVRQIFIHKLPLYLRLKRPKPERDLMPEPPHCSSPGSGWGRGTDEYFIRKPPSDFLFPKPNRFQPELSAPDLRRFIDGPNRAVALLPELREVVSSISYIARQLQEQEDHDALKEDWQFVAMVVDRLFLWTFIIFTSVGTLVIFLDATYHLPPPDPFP
N muscle-type, sequence (P07510 23-517): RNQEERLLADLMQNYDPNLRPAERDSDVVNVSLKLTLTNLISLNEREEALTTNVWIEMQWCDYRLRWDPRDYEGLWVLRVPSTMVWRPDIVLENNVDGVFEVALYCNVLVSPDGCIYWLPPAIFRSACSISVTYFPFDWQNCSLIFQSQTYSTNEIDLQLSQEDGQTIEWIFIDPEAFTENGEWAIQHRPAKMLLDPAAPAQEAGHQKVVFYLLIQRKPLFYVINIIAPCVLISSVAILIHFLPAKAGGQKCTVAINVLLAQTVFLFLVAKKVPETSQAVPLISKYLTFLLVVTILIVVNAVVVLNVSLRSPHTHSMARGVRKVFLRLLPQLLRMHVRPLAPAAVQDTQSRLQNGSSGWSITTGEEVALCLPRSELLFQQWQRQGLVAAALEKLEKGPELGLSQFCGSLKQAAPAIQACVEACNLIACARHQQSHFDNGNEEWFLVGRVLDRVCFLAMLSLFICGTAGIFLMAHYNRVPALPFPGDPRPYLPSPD
N muscle-type, sequence (P02708 21-457): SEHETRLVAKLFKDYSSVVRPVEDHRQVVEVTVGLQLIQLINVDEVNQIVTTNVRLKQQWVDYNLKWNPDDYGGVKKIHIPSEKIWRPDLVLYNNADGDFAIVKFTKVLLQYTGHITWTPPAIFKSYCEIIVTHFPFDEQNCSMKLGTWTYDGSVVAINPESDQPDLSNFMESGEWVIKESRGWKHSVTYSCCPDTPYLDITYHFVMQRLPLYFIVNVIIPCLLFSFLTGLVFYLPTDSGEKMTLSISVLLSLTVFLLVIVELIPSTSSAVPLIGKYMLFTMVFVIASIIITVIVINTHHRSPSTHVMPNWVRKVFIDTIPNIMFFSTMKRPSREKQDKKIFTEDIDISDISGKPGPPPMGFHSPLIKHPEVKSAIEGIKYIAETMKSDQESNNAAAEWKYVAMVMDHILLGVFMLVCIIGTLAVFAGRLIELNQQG
N muscle-type, sequence (Q07001 22-517): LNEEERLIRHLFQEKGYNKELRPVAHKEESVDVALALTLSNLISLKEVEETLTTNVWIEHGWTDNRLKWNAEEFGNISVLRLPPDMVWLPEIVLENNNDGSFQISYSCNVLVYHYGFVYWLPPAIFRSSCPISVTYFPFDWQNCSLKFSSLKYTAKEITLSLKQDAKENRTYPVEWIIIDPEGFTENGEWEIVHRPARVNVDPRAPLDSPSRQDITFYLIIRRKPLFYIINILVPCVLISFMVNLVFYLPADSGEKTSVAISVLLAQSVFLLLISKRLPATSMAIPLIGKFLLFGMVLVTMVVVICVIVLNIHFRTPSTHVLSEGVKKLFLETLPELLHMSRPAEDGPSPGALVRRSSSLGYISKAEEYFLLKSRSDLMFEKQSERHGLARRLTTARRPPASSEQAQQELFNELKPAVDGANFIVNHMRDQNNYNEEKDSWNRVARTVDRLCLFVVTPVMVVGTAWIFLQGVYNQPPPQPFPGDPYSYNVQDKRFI
alpha 1A, sequence (P35348 whole entry): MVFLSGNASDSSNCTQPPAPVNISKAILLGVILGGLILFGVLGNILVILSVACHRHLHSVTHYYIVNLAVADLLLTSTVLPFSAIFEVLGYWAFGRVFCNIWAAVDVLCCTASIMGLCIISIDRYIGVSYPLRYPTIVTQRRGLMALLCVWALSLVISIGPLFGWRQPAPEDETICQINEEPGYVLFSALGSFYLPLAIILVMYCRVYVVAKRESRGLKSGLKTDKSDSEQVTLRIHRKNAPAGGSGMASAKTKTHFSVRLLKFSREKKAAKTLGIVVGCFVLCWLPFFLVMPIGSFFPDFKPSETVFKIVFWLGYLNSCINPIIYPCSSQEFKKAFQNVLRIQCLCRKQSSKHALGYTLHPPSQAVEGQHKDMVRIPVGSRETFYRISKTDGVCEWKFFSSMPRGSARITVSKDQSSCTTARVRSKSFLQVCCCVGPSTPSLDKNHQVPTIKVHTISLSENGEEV

CC[C@H](C)[C@@H]1NC(=O)[C@H](Cc2ccc(O)cc2)NC(=O)CNC(=O)CC[C@@H](C(=O)N2CC(F)C[C@H]2C(=O)N[C@@H](CC(C)C)C(=O)NCC(N)=O)NC(=O)[C@H](CC(N)=O)NC(=O)[C@H](CCC(N)=O)NC1=O (stereo partly shown) [RO6958375] (HELM PEPTIDE1{G.Y.I.Q.N.E.[O=C([C@@H]1CC(F)CN1[*:1])[*:2]].L.G.[am]}$PEPTIDE1,PEPTIDE1,1:R1-6:R3$$$V2.0)
% Inhibition of Control Specific Binding [1]: 1% | Mean / % of Control Specific Binding [1]: 98.8% | % Inhibition of Control Specific Binding [2]: -1% | Mean / % of Control Specific Binding [2]: 101.4% | % Inhibition of Control Specific Binding [3]: 5% | Mean / % of Control Specific Binding [3]: 94.7% | % Inhibition of Control Specific Binding [4]: 9% | Mean / % of Control Specific Binding [4]: 90.6% | % Inhibition of Control Specific Binding [5]: 17% | Mean / % of Control Specific Binding [5]: 82.8% | % Inhibition of Control Specific Binding [6]: -36% | Mean / % of Control Specific Binding [6]: 136% | % Inhibition of Control Specific Binding [7]: 10% | Mean / % of Control Specific Binding [7]: 89.6% | % Inhibition of Control Specific Binding [8]: -2% | Mean / % of Control Specific Binding [8]: 101.5% | % Inhibition of Control Specific Binding [9]: 4% | Mean / % of Control Specific Binding [9]: 96.4% | % Inhibition of Control Specific Binding [10]: -7% | Mean / % of Control Specific Binding [10]: 106.7% | % Inhibition of Control Specific Binding [11]: -13% | Mean / % of Control Specific Binding [11]: 112.7% | % Inhibition of Control Specific Binding [12]: 2% | Mean / % of Control Specific Binding [12]: 98.2% | % Inhibition of Control Specific Binding [13]: 4% | Mean / % of Control Specific Binding [13]: 96.2% | % Inhibition of Control Specific Binding [14]: 3% | Mean / % of Control Specific Binding [14]: 97.2% | % Inhibition of Control Specific Binding [15]: -4% | Mean / % of Control Specific Binding [15]: 103.5% | % Inhibition of Control Specific Binding [16]: -28% | Mean / % of Control Specific Binding [16]: 128.2% | % Inhibition of Control Specific Binding [17]: 13% | Mean / % of Control Specific Binding [17]: 87.1% | % Inhibition of Control Specific Binding [18]: -2% | Mean / % of Control Specific Binding [18]: 102.1% | % Inhibition of Control Specific Binding [19]: 8% | Mean / % of Control Specific Binding [19]: 92.1% | EC50 [20]: 0.011 nM | EC50 [21]: 0.025 nM
